Assay results as given in patent US20260217701A1, “SELECTIVE BET INHIBITORS AND USES THEREOF” (Tay Therapeutics Limited, priority 2022, published 2026).
Several values for one entry are separate records, joined by “and”; a condition that tells them apart may be missing. Equal entries are not always repeated.

Experiment: Rat PK study #3 (ABBV-744 IV 1 mg/kg and PO 5 mg/kg)
Type: in vivo, SD rats
Parameters: Tmax: unit: h
Conditions: for concentration at 0.033 h: male, Sprague-Dawley, rat, plasma, iv
Protocol: For the third rat pharmacokinetic study, the pharmacokinetics of ABBV-744 were assessed in male SD rats for comparison to Compound A. ABBV-744 was prepared in a formulation of 5% DMSO, 40% PEG-400, and 55% Milli-Q water (see Table 2D for formulation) and delivered to animals orally (PO) at a dose of 5 mg/kg, or intravenously (IV) at a dose of 1 mg/kg. Animals in each group (n=3) were then monitored over a 24-hour period.
Blood samples (~0.2 mL) were collected according to a schedule (IV administration: 0.033, 0.083, 0.25, 0.5, 1, 2, 4, and 8 h following the initial dosing; PO administration: 0.083, 0.25, 0.5, 1, 2, 4, 8, and 24 h following the initial dosing) by jugular vein by cannulation except for the dosing vein (for IV group), and EDTA-K2 was used as anticoagulant. Within 30 minutes of collection, the samples were centrifuged at approximately 4000 times g-force for 5 minutes at 4° C. to obtain blood plasma. The plasma samples were immediately divided into two aliquots (~75 µL each), transferred to a cryogenic vial, and stored in a freezer at −75±15° C. prior to analysis.
The concentration of ABBV-744 in plasma samples was determined by liquid chromatography-mass spectrometry (LC-MS/MS) using a Shimadzu HPLC(DGU-405; LC-40D XS CN; SIL-40C XSCN; Plate Changer CN; CTO-40C CN; and CBM-40 CN) and an AB API 5500+LC/MS/MS instrument. Samples were analyzed on an Agilent Poroshell Bonus RP 2.7 μm (50×2.1 mm) column. Solution A in the mobile phase was 95% water (0.1% formic acid) and solution B was 95% acetonitrile in water (0.1% formic acid), injection volume was 6 μL, and flow rate was 0.6 mL/min.
To prepare samples for analysis, serial concentrations were prepared by diluting the stock solution of analyte with a 50% acetonitrile in water solution. 5 μL working solutions (5, 10, 20, 50, 100, 500, 1000, 5000, and 10000 ng/mL) were added to 50 μL of the blank SD rat plasma to achieve calibration standards of ~0.5 to 1000 ng/ml (0.5, 1, 2, 5, 10, 50, 100, 500, and 1000 ng/ml) in a total volume of 55 μL. Five quality control samples at 1 ng/ml, 2 ng/ml, 5 ng/ml, 50 ng/mL, and 800 ng/ml for plasma were prepared independently of those used for the calibration curves. These QC samples were prepared on the day of analysis in the same way as calibration standards.
55 μL of standards, 55 μL of QC samples and 55 μL of unknown samples (50 μL of unknown rat plasma with 5 µL of blank solution) were added to 200 µL of acetonitrile containing IS mixture (verapamil) for precipitating protein respectively. The samples were then vortexed for 30 s. After centrifugation at 4° C., 3900 rpm for 15 min, the supernatant was diluted 3 times with water. 6 μL of diluted supernatant was injected into the LC/MS/MS system for quantitative analysis.

[1] = SD rats, IV 1 mg/kg, DMSO/PEG-400/Milli-Q water formulation, individual animals, 1 mg/kg
[2] = SD rats, IV 1 mg/kg, DMSO/PEG-400/Milli-Q water formulation, mean of 3 animals
[3] = SD rats, PO 5 mg/kg, DMSO/PEG-400/Milli-Q water formulation, individual animals, 5 mg/kg

exposure above the free EC50 BD2 BRD4 (5 mg/kg dose): minimal | Clinical observations (IV 1 mg/kg and PO 5 mg/kg): No clinical observations were noted | Plasma Concentration (SD rats, IV 1 mg/kg, DMSO/PEG-400/Milli-Q water formulation, 0.033 h, individual animals, 1 mg/kg): 484 ng/mL and 489 ng/mL | Plasma Concentration (SD rats, IV 1 mg/kg, DMSO/PEG-400/Milli-Q water formulation, 0.083 h, individual animals, 1 mg/kg): 308 ng/mL and 353 ng/mL | Plasma Concentration (SD rats, IV 1 mg/kg, DMSO/PEG-400/Milli-Q water formulation, 0.25 h, individual animals, 1 mg/kg): 267 ng/mL and 289 ng/mL | Plasma Concentration (SD rats, IV 1 mg/kg, DMSO/PEG-400/Milli-Q water formulation, 0.5 h, individual animals, 1 mg/kg): 217 ng/mL and 202 ng/mL | Plasma Concentration (SD rats, IV 1 mg/kg, DMSO/PEG-400/Milli-Q water formulation, 1 h, individual animals, 1 mg/kg): 147 ng/mL and 158 ng/mL | Plasma Concentration (SD rats, IV 1 mg/kg, DMSO/PEG-400/Milli-Q water formulation, 2 h, individual animals, 1 mg/kg): 116 ng/mL and 110 ng/mL | Plasma Concentration (SD rats, IV 1 mg/kg, DMSO/PEG-400/Milli-Q water formulation, 4 h, individual animals, 1 mg/kg): 55.9 ng/mL and 54.8 ng/mL | Plasma Concentration (SD rats, IV 1 mg/kg, DMSO/PEG-400/Milli-Q water formulation, 8 h, individual animals, 1 mg/kg): 18.3 ng/mL and 15.0 ng/mL | AUCInf [1]: 750 ng·h/mL and 728 ng·h/mL | AUC_%Extrap_obs [1]: 5.41% and 8.03% and 6.23% | AUClast [1]: 690 ng·h/mL and 683 ng·h/mL | C0 [1]: 652 ng/mL and 606 ng/mL | MRTInf_obs [1]: 2.88 h and 2.61 h | T1/2 [1]: 2.28 h and 2.09 h | Vss_obs [1]: 3.69 L/kg and 3.84 L/kg and 3.59 L/kg | AUC_%Extrap_obs [2]: 6.56% | Cl_obs [2]: 23.3 mL/min/kg | Vss_obs [2]: 3.71 L/kg | Plasma Concentration (SD rats, PO 5 mg/kg, DMSO/PEG-400/Milli-Q water formulation, 0.083 h, individual animals, 5 mg/kg): 0.00 ng/mL and 1.03 ng/mL and 3.81 ng/mL | Plasma Concentration (SD rats, PO 5 mg/kg, DMSO/PEG-400/Milli-Q water formulation, 0.25 h, individual animals, 5 mg/kg): 2.95 ng/mL and 6.42 ng/mL and 48.5 ng/mL | Plasma Concentration (SD rats, PO 5 mg/kg, DMSO/PEG-400/Milli-Q water formulation, 0.5 h, individual animals, 5 mg/kg): 7.91 ng/mL and 21.1 ng/mL and 100 ng/mL | Plasma Concentration (SD rats, PO 5 mg/kg, DMSO/PEG-400/Milli-Q water formulation, 1 h, individual animals, 5 mg/kg): 16.7 ng/mL and 41.0 ng/mL and 118 ng/mL | Plasma Concentration (SD rats, PO 5 mg/kg, DMSO/PEG-400/Milli-Q water formulation, 2 h, individual animals, 5 mg/kg): 31.9 ng/mL and 78.0 ng/mL and 157 ng/mL | Plasma Concentration (SD rats, PO 5 mg/kg, DMSO/PEG-400/Milli-Q water formulation, 4 h, individual animals, 5 mg/kg): 40.6 ng/mL and 101 ng/mL and 239 ng/mL | Plasma Concentration (SD rats, PO 5 mg/kg, DMSO/PEG-400/Milli-Q water formulation, 8 h, individual animals, 5 mg/kg): 54.6 ng/mL and 70.6 ng/mL and 214 ng/mL | Cmax [3]: 54.6 ng/mL and 101 ng/mL and 239 ng/mL | F [3]: 22.1% and 35.2% and 97.7% | Tmax [3]: 4.00 h | F (SD rats, PO 5 mg/kg, DMSO/PEG-400/Milli-Q water formulation, mean of 3 animals): 51.7% | concentration at 0.033 h (1 mg/kg, SD rats, IV 1 mg/kg, DMSO/PEG-400/Milli-Q water formulation, 0.033 h, individual animals): 475 ng/mL | concentration at 0.033 h (1 mg/kg, SD rats, IV 1 mg/kg, DMSO/PEG-400/Milli-Q water formulation, 0.033 h, mean of 3 animals): 483 ng/mL
Compound: CCNC(=O)c1cc2c(-c3cc(C(C)(C)O)ccc3Oc3c(C)cc(F)cc3C)cn(C)c(=O)c2[nH]1 [ABBV-744]
Cl_obs [1]: 24.9 mL/min/kg and 22.2 mL/min/kg and 22.9 mL/min/kg | Plasma Concentration (SD rats, PO 5 mg/kg, DMSO/PEG-400/Milli-Q water formulation, 24 h, individual animals, 5 mg/kg): 0.909 ng/mL and 1.09 ng/mL and 4.52 ng/mL | AUClast [3]: 739 ng·h/mL and 1175 ng·h/mL and 3265 ng·h/mL
